From patent US20240009175A9, “TETRAZOLE DERIVATIVES” (Merck Patent GmbH, priority 2020, published 2024)

Assays:
human rec ACSS2 = human rec ACSS2 (Homo sapiens (Human), UniProt Q9NR19); assay: Biochemical activity ACSS2 assay (AMP-Glo); settings: human recombinant ACSS2, AMP-Glo, 180 min at 37° C.
Text: Biochemical Activity ACSS2 Assay (IC50 ACSS2 Biochemical)
The biochemical activity assay for ACSS2 is based on the detection of released AMP by AMP-Glo™ Assay kit (Promega, Madison). The assay is run in three steps: the enzymatic reaction in which human rec ACSS2 activates acetate with ATP and Coenzyme A as cosubstrates to acetyl-CoA thereby releasing AMP and the detection reaction of AMP by AMP Glo assay in which after the destruction of the residual ATP with AMP Glo reagent 1 produced AMP is converted to ATP that is measured in a luciferase assay system (detection reagent). The ACSS2 activity correlates with the detected luminescence signal.
The assay was performed in Perkin Elmer 384 well white Proxiplates in a total volume of 8 μl.
1 nM (fc)C-term myc tagged ACSS2 (human, recombinant, Origene, Rockville, US) and a mixture of 100 μM (fc) ATP, 100 μM (fc) Coenzyme A and 500 μM (fc) sodium acetate were incubated in a total volume of 5 μl (50 mM Hepes, 1 mM Mg-chloride, 150 mM NaCl, 1 mM DTT, 0.01% (w/v) BSA, 0.3% DMSO, pH 7.5) in the absence or presence of the test compound (10 dilution concentrations, start conc 30 μM) for 180 min at 37° C. The reaction was stopped and residual ATP destroyed by the addition of 1 μl AMP Glo reagent solution (Promega, Madison, US). After 1h incubation at room temperature 2 μl of AMP Glo detection reagent was added and the assay was incubated for 0.75 hr at room temperature. The luminescence signal was measured with an Envision multimode reader (Perkin Elmer LAS Germany GmbH) at 700 nm in luminescence mode. The full value used was the inhibitor-free reaction. The pharmacological zero value was generated by addition of ACSS2 inhibitor (Ac-CoA Synthase Inhibitor—CAS 508186-14-9-Calbiochem) in a final concentration of 5 μM. The inhibitory values (IC50) were determined using the program Assay Analyzer® from GeneData.

ACSS2 = ACSS2 (Homo sapiens (Human), UniProt Q9NR19); assay: Cellular assay of 14C acetate incorporation into histones (IC50 ACSS2 cellular histone); type: cell-based; settings: HCT-15 cells
Text: Cellular Assay of ^14C Acetate Incorporation into Histones (IC50 ACSS2 Cellular Histone)
This protocol describes a cellular assay capable to quantify endogenous histone acetylation activity in the human HCT-15 cancer cell line following the incorporation of extracellularly administered radiolabeled ^14C acetate with a scintillation based read out on acid extracted histones.
HCT-15 cells are trypsinized, washed and suspended in DMEM culture medium supplemented with penicillin/streptomycin (100 U/mL), sodium pyruvate (1 mM), and 10% FBS
Compounds serial dilutions are prepared in 96-well V-bottom microplate from 10 mM stock solutions in DMSO. From these dilutions 0.5 μl are transferred to a fresh plate including pure DMSO as negative control. The dilutions are prepared such, that the final concentration in the assay is 1/400 of the concentration in the serial dilution. The final DMSO concentration in the assay is 0.25%.
The cell suspension is seeded at densities of 2×10^5 cells per 170 μl into individual wells of a 96 well plate each containing 0.5 μl aliquots of compound serial dilutions and are kept for 1 h in a cell incubator. To each well 30 μL of a mixture containing 0.5 mCi/mL of ^14C-acetate with full medium are added. Then, the wells are incubated for 3 hrs in the cell incubator.
Further steps of the procedure should be conducted on ice or instrumentations precooled to 4° C. Cells are sedimented in the 96-well V-bottom microplate by centrifugation (Eppendorf 5804 R) at 1200 rpm for 5 min. The supernatant is removed and the cells are washed twice with 200 μL of PBS-NaB (5 mM sodium butyrate) buffer by iterative resuspension and centrifugation. Finally, the cells are resuspended in 50 μL of TEB (PBS-NaB+0.5% Triton X-100) and left on ice for 10 minutes. After centrifugation at 2300 rpm for 10 minutes at 4° C. the supernatant is removed, the remaining pellet is suspended in 50 μL of 0.2M HCl and incubated over night at 4° C. After incubation the well plate is shaken for 2 minutes in a MTP plate shaker set to 1200 rpm and then centrifuged at 3700 rpm for 10 mins. The lysate is carefully aspirated (˜43 μL) and transferred into a white MTP plate (Greiner bio-one 65509). 90 μL of Ultima Gold XR scintillation cocktail are added and the plates are sealed with a transparent cover tape before mixing vigorously using plate shaker set to 1200 rpm. Radioactivity from ^14C incorporation in the wells is measured as CPM count in a MicroBeta Trilux luminescence counter.

CHO-K1 cells = assay: Micronucleus assay (MNT) in vitro; type: cell-based; parameters: key: A: negative, putative negative (micronuclei detected beyond threshold of 60% cyctotoxicity); B: positive; settings: 24 hrs treatment, 0.2 μM to 100 μM
Description: The in vitro MNT assay is performed in CHO-K1 cells due to their stable and well-characterized karyotype, high sensitivity and suitability for a high content imaging approach. They have a basal spontaneous micronucleus frequency of 3-4%.
24 hrs after plating CHO-K1 cells are treated with test compounds for 24 hrs (in duplicates; fixed concentration ranges from 0.2 μM to 100 μM in 2-fold dilution steps). After a medium change cells are incubated for 24 hrs with Cytochalasin B to block cytokinesis and are then fixed and nuclei/micronuclei visualized with a DNA stain. Images are acquired with the Molecular Devices high content imagers IXU or IXM and are analyzed with the dedicated MetaXpress software micronucleus module. Criteria for scoring of micronuclei (MN) are the following: • diameter of the MN should be less than ⅓ of the main nucleus • MN should be separated from or marginally overlap with main nucleus (=no blebs) • MN should have similar staining as the main nucleus
At least 1000 binucleated cells are evaluated per treatment replicate. Mitomycin C is used as reference stimulator of micronucleus formation. Cytotoxicity is evaluated in parallel and defined by comparing total nuclei count in compound-treated samples to neutral control samples treated with vehicle only (1% DMSO) (100% cytotoxicity means all cells are dead or lost).
A test compound is regarded as POSITIVE if generation of micronuclei and exhibition of less than 60% cytotoxicity at the same concentration can be observed.
Compounds are scored only in the soluble concentration range.
Experimental data of the compounds shown in Table 1 in the MNT assay are shown in Table 2 below and classified in the following groups: […]

Sequence of human rec ACSS2 (Q9NR19 whole entry): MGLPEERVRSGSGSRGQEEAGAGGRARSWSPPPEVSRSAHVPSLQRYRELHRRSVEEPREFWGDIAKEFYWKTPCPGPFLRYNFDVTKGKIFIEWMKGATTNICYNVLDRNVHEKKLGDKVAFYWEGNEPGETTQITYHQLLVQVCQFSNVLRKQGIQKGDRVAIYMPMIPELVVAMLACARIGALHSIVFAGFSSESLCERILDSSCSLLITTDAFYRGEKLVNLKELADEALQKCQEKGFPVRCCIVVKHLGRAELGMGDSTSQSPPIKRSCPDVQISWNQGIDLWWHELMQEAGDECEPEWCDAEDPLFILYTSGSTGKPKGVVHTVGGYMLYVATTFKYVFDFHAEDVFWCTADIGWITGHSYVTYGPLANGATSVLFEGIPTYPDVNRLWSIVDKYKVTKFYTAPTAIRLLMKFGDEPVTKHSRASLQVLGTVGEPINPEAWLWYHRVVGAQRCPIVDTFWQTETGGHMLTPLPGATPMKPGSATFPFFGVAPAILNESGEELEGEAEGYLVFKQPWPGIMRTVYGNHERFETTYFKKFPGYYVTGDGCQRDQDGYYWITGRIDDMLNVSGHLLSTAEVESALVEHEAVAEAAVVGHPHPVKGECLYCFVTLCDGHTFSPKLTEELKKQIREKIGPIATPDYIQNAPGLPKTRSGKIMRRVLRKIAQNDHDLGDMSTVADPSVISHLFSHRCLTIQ
Sequence of ACSS2 (Q9NR19 whole entry): as above

Row | SMILES | IC50 (human rec ACSS2) [nM] | IC50 (ACSS2) [nM] | MNT (CHO-K1 cells)
1 | CCn1c(C(O)(c2ccccn2)c2cccs2)nc2nc(OC)c(-c3nnn[nH]3)cc21 (racemic) [Compound 26, [1-ethyl-5-methoxy-6-(1H-1,2,3,4-tetrazol-5-yl)-1H-imidazo[4,5-b]pyridin-2-yl](pyridin-2-yl)(thiophen-2-yl)methanol] | 10 to 100 | 1 to 10 | A
2 | CCc1c(C(O)(c2ccccc2)c2ccccn2)nc2cc(Cl)c(-c3nnn[nH]3)cn12 (single isomer, unassigned) [Compound 7, [7-chloro-3-ethyl-6-(1H-tetrazol-5-yl)imidazo[1,2-a]pyridin-2-yl]-phenyl-(2-pyridyl)methanol] | 10 to 100 | – | A
3 | CCc1c(C(O)(c2ccccc2)c2ncccn2)nc2cc(OC)c(-c3nnn[nH]3)cn12 (single isomer, unassigned) [Compound 15, [3-Ethyl-7-methoxy-6-(1H-tetrazol-5-yl)-imidazo[1,2-a]pyridin-2-yl]-phenyl-pyrimidin-2-yl-methanol] | 100 to 10000 | – | –
4 | CCc1c(C(O)(c2ccccc2)c2ccn(C)n2)nc2cc(OC)c(-c3nnn[nH]3)cn12 (single isomer, unassigned) [Compound 17, [3-Ethyl-7-methoxy-6-(1H-tetrazol-5-yl)-imidazo[1,2-a]pyridin-2-yl]-(1-methyl-1H-pyrazol-3-yl)-phenyl-methanol] | 100 to 10000 | – | –
5 | CCn1c(C(O)(c2ccccc2)c2nccs2)nc2nc(OC)c(-c3nnn[nH]3)cc21 (single isomer, unassigned) [Compound 32, [1-ethyl-5-methoxy-6-(1H-1,2,3,4-tetrazol-5-yl)-1H-imidazo[4,5-b]pyridin-2-yl](phenyl)(1,3-thiazol-2-yl)methanol] | 0.01 to 1 | – | A
6 | CCn1c(C(O)(c2ccccc2)c2ccccn2)nc2nc(OC)c(-c3nnn[nH]3)cc21 (single isomer, unassigned) [Compound 41, [1-ethyl-5-methoxy-6-(1H-1,2,3,4-tetrazol-5-yl)-1H-imidazo[4,5-b]pyridin-2-yl](phenyl)(pyridin-2-yl)methanol] | 10 to 100 | 1 to 10 | –
7 | CCn1c(C(O)(c2ccccc2C)c2ccccc2C)nc2nc(OC)c(-c3nnn[nH]3)cc21 [Compound 39, [1-ethyl-5-methoxy-6-(1H-1,2,3,4-tetrazol-5-yl)-1H-imidazo[4,5-b]pyridin-2-yl]bis(2-methylphenyl)methanol] | 10 to 100 | 10 to 100 | –

Second part, led by results:

Row | IC50 (human rec ACSS2) [nM] | IC50 (ACSS2) [nM] | SMILES | MNT (CHO-K1 cells)
8 | 1 to 10 | 1 to 10 | CCn1c(C(O)(c2ccccc2)c2ccncn2)nc2nc(OC)c(-c3nnn[nH]3)cc21 (racemic) [Compound 25, [1-ethyl-5-methoxy-6-(1H-1,2,3,4-tetrazol-5-yl)-1H-imidazo[4,5-b]pyridin-2-yl](phenyl)(pyrimidin-4-yl)methanol] | –
9 | 10 to 100 | 100 to 10000 | CCn1c(C(O)(c2ccccc2)c2ccncc2)nc2nc(OC)c(-c3nnn[nH]3)cc21 (racemic) [Compound 43, [1-ethyl-5-methoxy-6-(1H-1,2,3,4-tetrazol-5-yl)-1H-imidazo[4,5-b]pyridin-2-yl](phenyl)(pyridin-4-yl)methanol] | –
10 | 10 to 100 | 100 to 10000 | CCn1c(C(O)(c2ccccc2)c2cccnc2)nc2nc(OC)c(-c3nnn[nH]3)cc21 (racemic) [Compound 44, [1-ethyl-5-methoxy-6-(1H-1,2,3,4-tetrazol-5-yl)-1H-imidazo[4,5-b]pyridin-2-yl](phenyl)(pyridin-3-yl)methanol] | –
11 | 1 to 10 | 10 to 100 | CCn1c(C(O)(c2ccccc2)c2ccc(OC(F)F)cc2)nc2nc(OC)c(-c3nnn[nH]3)cc21 (racemic) [Compound 53, [4-(difluoromethoxy)phenyl][1-ethyl-5-methoxy-6-(1H-1,2,3,4-tetrazol-5-yl)-1H-imidazo[4,5-b]pyridin-2-yl]phenylmethanol] | –
12 | 1 to 10 | 1 to 10 | CCn1c(C(O)(c2ccccc2F)c2ccc(OC(F)F)cc2F)nc2nc(OC)c(-c3nnn[nH]3)cc21 (racemic) [Compound 54, [4-(difluoromethoxy)-2-fluorophenyl][1-ethyl-5-methoxy-6-(1H-1,2,3,4-tetrazol-5-yl)-1H-imidazo[4,5-b]pyridin-2-yl](2-fluorophenyl)methanol] | –
13 | 10 to 100 | 100 to 10000 | CCc1c(C(O)(c2ccccc2)c2ncccn2)nc2cc(OC)c(-c3nnn[nH]3)cn12 (single isomer, unassigned) [Compound 14, [3-Ethyl-7-methoxy-6-(1H-tetrazol-5-yl)-imidazo[1,2-a]pyridin-2-yl]-phenyl-pyrimidin-2-yl-methanol] | –
14 | 10 to 100 | – | CCc1c(C(O)(c2ccccc2)c2ccn(C)n2)nc2cc(OC)c(-c3nnn[nH]3)cn12 (single isomer, unassigned) [Compound 18, [3-Ethyl-7-methoxy-6-(1H-tetrazol-5-yl)-imidazo[1,2-a]pyridin-2-yl]-(1-methyl-1H-pyrazol-3-yl)-phenyl-methanol] | –
15 | 1 to 10 | – | CCc1cc2nc(C(O)(c3ccccc3)c3ccccc3)c(CC)n2cc1-c1nnn[nH]1 [Compound 1, [3,7-diethyl-6-(1 H-1,2,3,4-tetrazol-5-yl)imidazo[1,2-a]pyridin-2-yl]diphenylmethanol] | –
16 | 0.01 to 1 | – | COc1nc2nc(C(O)(c3ccccc3)c3ccccc3)n(C)c2cc1-c1nnn[nH]1 [Compound 24, [5-methoxy-1-methyl-6-(1H-1,2,3,4-tetrazol-5-yl)-1H-imidazo[4,5-b]pyridin-2-yl]diphenylmethanol] | –
17 | 0.01 to 1 | 1 to 10 | [2H]c1c([2H])c([2H])c(C(O)(c2c([2H])c([2H])c([2H])c([2H])c2[2H])c2nc3nc(OC)c(-c4nnn[nH]4)cc3n2CC)c([2H])c1[2H] [Compound 63, [1-ethyl-5-methoxy-6-(1H-1,2,3,4-tetrazol-5-yl)-1H-imidazo[4,5-b]pyridin-2-yl]bis[(2,3,4,5,6-^2H5)phenyl]methanol] | –
